# Measurements from patent US12603148B2, “Method for analysis of omics data” (Max-Delbrück-Centrum für Molekulare Medizin in der …, priority 2021, dated 2026).
# Tested on: patient derived xenografts (PDX) from localized breast cancer tumors
# Experiment: Drug response of breast cancer patient derived xenografts (complete vs non/incomplete response)
# Format: in vivo
# Settings: breast cancer PDX library; AC tested on 37 PDXs, Olaparib on 33 PDXs
# Method: A library of 37 patient derived xenografts (PDX) from localized breast cancer tumors were assayed using RNA-seq to determine gene expression profiles and Exome-seq to detect somatic mutations. AC (a combination of the chemotherapies Adriamycin (doxorubicin) and cyclophosphamide) was tested on the 37 PDXs, and 33 were also treated using Olaparib (a PARP inhibitor). The responses of the PDX to the treatments are categorized into Complete Response and non/incomplete response. […] Thus, the complete response to Olaparib results in 28 False and 5 True samples. The complete response to AC results in 26 False and 11 True samples.
smiles,measurement,value
O=C(c1cc(Cc2n[nH]c(=O)c3ccccc23)ccc1F)N1CCN(C(=O)C2CC2)CC1 [Olaparib],samples showing a complete response,5 samples
same,samples showing non- or partial responses,28 samples
